Values joined by “and” are separate entries in the source; they are usually repeats but may differ in a detail not shown here. Equal entries are not always repeated. Where two headings read alike, the source gives them in different places.
Tests used:
Experiment in all cases: KiNativ assay
Format in all cases: binding
IKKb = IKKb (Homo sapiens (Human), UniProt O14920); details: H929 live cell
Protocol: (§1) Biochemical IC50s of the compounds of the present disclosure against various kinases were measured in a KiNativ assay. Compounds were screened in duplicate at 10 μM in H929 live cell. IC50 was measured via Mass spectroscopy (MS).

TLK2 = TLK2 (Homo sapiens (Human), UniProt Q86UE8); details: H929 live cell
Protocol: as §1

ULK1 = ULK1 (Homo sapiens (Human), UniProt O75385); details: H929 live cell
Protocol: as §1

PIK3CG = PIK3CG (Homo sapiens (Human), UniProt P48736); details: H929 live cell
Protocol: as §1

MAP3K2 = MAP3K2 (Homo sapiens (Human), UniProt Q9Y2U5); details: H929 live cell
Sequence of MAP3K2 (Q9Y2U5 whole entry): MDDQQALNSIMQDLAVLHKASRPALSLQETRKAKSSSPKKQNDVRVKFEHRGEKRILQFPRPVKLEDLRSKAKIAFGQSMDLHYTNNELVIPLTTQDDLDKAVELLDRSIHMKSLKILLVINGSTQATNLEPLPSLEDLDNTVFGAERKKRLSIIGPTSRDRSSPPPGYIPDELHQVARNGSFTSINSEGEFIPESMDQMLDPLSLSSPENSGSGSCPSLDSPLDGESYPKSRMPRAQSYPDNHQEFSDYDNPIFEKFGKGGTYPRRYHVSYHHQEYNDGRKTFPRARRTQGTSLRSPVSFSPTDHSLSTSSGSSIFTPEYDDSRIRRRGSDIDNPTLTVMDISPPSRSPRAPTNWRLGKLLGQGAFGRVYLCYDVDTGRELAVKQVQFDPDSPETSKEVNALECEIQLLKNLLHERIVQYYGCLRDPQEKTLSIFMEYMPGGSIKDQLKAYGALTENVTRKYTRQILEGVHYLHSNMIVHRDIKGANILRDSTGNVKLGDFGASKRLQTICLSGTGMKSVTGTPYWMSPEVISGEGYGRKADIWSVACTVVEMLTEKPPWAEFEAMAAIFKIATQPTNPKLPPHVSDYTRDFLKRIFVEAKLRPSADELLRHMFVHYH
Protocol: as §1

PIP5K3 = PIP5K3 (Homo sapiens (Human), UniProt Q9Y2I7); details: H929 live cell
Protocol: as §1

MPSK1 = MPSK1 (Homo sapiens (Human), UniProt O75716); details: H929 live cell, read-out: inhibition (10 μM)
Protocol: as §1

p38a = p38a (Homo sapiens (Human), UniProt Q16539); details: H929 live cell, read-out: % inhibition (range)
In short: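 Live H929 cells, compound 10 μM, duplicate; KiNativ probe profiling; IC50 by MS.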

LYN = LYN (Homo sapiens (Human), UniProt P07948); details: H929 live cell
Sequence of LYN (P07948 whole entry): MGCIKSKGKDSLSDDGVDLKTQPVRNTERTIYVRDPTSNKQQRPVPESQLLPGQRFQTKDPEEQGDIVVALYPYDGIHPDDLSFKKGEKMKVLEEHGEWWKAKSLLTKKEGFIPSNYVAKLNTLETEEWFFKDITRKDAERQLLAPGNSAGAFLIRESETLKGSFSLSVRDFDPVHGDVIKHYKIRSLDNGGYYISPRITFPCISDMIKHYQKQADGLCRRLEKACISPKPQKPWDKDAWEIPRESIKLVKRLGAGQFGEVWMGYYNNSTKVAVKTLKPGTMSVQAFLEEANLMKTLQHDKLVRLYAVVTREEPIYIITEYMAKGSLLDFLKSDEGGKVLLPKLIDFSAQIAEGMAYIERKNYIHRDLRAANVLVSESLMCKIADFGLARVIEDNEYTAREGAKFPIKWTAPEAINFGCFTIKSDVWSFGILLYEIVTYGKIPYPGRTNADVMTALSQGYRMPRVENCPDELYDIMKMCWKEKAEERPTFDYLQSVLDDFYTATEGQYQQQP
Protocol: as §1

RSKL1 = RSKL1 (Homo sapiens (Human), UniProt Q96S38); details: H929 live cell
Protocol: as §1

Wnk1, Wnk2, Wnk3 = details: H929 live cell
Protocol: as §1

CDC2 = CDC2 (Homo sapiens (Human), UniProt P06493); details: H929 live cell
Sequence of CDC2 (P06493 whole entry): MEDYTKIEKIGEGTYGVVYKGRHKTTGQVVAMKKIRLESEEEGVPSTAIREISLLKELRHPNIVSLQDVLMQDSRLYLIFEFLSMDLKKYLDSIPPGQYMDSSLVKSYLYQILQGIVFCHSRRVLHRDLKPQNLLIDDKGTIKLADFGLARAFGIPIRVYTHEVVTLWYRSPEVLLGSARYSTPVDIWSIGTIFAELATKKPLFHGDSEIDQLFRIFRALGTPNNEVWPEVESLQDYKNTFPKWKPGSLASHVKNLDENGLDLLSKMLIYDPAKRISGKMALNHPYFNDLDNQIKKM
Protocol: as §1

FRAP = FRAP (Homo sapiens (Human), UniProt P42345); details: H929 live cell
Protocol: as §1

MAP2K4 = MAP2K4 (Homo sapiens (Human), UniProt P45985); details: H929 live cell
Sequence of MAP2K4 (P45985 whole entry): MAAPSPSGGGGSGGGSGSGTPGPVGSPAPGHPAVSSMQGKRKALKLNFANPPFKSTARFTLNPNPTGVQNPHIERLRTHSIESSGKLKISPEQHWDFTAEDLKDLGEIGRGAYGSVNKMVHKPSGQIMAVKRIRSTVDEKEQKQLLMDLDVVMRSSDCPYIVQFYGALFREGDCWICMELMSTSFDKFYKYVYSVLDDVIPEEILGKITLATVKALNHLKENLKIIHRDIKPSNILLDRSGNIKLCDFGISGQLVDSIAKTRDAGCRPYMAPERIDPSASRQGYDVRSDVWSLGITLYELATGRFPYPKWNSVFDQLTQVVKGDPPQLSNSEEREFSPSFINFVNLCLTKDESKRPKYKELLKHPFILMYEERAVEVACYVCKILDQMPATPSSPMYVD
Protocol: as §1

IKKe, TBK1 = details: H929 live cell
Protocol: as §1

EphB2 = EphB2 (Homo sapiens (Human), UniProt P29323); details: H929 live cell
Protocol: as §1

MAPKAPK2, MAPKAPK3 = details: H929 live cell
Protocol: as §1

AurA = AurA (Homo sapiens (Human), UniProt O14965); details: H929 live cell
Sequence of AurA (O14965 whole entry): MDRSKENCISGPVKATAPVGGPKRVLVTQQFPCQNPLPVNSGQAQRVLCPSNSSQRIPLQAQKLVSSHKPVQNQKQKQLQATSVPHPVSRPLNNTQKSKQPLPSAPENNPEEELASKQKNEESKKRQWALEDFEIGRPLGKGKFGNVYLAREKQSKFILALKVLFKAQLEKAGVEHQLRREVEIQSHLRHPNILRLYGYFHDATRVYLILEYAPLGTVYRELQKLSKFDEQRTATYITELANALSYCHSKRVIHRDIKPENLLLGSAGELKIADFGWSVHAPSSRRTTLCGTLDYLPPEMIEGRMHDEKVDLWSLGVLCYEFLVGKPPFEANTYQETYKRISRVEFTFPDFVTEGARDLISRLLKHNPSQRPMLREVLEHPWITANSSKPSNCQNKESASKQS
Protocol: as §1

JNK1, JNK2, JNK3 = details: H929 live cell
Protocol: as §1

ABL, ARG = details: H929 live cell
Protocol: as §1

KSR1, KSR2 = details: H929 live cell
Protocol: as §1

Erk1 = Erk1 (Homo sapiens (Human), UniProt P27361); details: H929 live cell
Sequence of Erk1 (P27361 whole entry): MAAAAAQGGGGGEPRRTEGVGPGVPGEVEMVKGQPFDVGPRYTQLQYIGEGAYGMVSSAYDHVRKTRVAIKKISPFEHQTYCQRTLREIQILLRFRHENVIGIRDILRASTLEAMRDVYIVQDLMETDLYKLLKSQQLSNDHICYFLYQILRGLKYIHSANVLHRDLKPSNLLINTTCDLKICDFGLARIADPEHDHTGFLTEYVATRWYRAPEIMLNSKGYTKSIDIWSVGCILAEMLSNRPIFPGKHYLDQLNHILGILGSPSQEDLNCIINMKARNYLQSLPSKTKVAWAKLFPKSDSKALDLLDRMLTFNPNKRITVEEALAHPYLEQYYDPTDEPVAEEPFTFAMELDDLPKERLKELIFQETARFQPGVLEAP
Protocol: as §1

MAP2K1 = MAP2K1 (Homo sapiens (Human), UniProt Q02750); details: H929 live cell
Protocol: as §1

TAO2 = TAO2 (Homo sapiens (Human), UniProt Q9UL54); details: H929 live cell
Sequence of TAO2 (Q9UL54 whole entry): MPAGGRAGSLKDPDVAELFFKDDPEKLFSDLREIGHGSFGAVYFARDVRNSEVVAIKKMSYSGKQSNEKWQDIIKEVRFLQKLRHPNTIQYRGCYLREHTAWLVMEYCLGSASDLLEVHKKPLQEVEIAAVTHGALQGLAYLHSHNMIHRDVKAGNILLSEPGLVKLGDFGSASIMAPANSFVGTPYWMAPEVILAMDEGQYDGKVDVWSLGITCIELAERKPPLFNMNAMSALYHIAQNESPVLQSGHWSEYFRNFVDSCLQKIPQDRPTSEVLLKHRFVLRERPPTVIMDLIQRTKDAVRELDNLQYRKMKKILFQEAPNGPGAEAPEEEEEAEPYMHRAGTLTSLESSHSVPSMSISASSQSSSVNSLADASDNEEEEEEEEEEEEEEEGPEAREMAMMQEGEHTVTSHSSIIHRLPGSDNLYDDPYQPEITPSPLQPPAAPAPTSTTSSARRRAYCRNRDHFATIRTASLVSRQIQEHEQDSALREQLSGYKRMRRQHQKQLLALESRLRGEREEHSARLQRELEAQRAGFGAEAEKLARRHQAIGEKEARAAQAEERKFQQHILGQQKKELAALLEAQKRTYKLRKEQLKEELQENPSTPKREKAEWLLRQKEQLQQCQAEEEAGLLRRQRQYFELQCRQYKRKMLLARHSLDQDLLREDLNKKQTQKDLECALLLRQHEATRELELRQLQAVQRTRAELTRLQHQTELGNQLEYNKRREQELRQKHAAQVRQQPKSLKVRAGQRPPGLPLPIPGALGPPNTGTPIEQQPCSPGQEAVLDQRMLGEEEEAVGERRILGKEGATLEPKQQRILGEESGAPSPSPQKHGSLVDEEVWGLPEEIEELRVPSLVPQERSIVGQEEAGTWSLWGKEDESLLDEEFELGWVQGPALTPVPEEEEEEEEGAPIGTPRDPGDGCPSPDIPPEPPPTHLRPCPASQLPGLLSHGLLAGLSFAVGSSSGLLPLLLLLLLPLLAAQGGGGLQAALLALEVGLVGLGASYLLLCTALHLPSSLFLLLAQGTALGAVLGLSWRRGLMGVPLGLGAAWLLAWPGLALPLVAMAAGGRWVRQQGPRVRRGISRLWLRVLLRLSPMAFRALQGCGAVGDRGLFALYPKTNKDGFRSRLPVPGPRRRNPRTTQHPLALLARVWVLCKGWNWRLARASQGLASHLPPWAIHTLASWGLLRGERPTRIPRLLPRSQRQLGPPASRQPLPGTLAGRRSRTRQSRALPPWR
Protocol: as §1

CHK1 = CHK1 (Homo sapiens (Human), UniProt O14757); details: H929 live cell
Sequence of CHK1 (O14757 whole entry): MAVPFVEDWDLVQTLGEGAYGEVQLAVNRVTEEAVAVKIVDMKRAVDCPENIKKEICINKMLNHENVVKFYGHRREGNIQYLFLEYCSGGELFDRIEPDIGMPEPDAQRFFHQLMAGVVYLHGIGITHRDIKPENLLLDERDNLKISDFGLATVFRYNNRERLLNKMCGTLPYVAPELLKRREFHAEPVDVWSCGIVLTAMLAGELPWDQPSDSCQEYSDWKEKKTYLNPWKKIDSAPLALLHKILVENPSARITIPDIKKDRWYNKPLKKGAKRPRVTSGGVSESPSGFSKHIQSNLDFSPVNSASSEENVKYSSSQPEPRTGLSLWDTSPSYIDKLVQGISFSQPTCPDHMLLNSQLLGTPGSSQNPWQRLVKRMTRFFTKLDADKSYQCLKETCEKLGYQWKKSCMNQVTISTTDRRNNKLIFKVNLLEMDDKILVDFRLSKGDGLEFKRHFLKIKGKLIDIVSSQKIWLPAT
Protocol: as §1

BARK1 = BARK1 (Homo sapiens (Human), UniProt P25098); details: H929 live cell
Protocol: as §1

GCK = GCK (Homo sapiens (Human), UniProt Q12851); details: H929 live cell, read-out: inhibition (10 μM)
Protocol: as §1

NEK8 = NEK8 (Homo sapiens (Human), UniProt Q86SG6); details: H929 live cell
Protocol: as §1

SRPK2 = SRPK2 (Homo sapiens (Human), UniProt P78362); details: H929 live cell
Sequence of SRPK2 (P78362 whole entry): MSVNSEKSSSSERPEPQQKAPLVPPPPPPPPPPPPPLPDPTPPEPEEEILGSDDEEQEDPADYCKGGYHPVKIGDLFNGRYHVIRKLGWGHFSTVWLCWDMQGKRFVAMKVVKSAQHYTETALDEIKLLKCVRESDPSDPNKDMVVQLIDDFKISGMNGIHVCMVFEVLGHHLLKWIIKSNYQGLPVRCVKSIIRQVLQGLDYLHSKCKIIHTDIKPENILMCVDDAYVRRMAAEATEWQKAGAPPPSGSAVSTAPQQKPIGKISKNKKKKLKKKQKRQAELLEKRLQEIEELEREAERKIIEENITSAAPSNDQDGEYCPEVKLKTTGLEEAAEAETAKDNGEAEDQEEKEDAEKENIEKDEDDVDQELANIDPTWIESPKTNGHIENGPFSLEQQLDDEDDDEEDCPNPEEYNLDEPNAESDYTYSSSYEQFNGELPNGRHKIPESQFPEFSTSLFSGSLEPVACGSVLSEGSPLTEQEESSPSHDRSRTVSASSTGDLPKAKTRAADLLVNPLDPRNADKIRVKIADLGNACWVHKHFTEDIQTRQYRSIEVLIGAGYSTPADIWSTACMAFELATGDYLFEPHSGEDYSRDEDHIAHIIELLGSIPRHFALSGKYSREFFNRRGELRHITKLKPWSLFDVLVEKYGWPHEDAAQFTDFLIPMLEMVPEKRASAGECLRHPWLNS
Protocol: as §1

TYK2 domain2 = TYK2 domain2 (Homo sapiens (Human), UniProt P29597); details: H929 live cell
Protocol: as §1

NEK6, NEK7 = details: H929 live cell
Protocol: as §1

CaMK1d = CaMK1d (Homo sapiens (Human), UniProt Q8IU85); details: H929 live cell
Protocol: as §1

TAO1, TAO3 = details: H929 live cell
Protocol: as §1

PRP4 = PRP4 (Homo sapiens (Human), UniProt Q13523); details: H929 live cell
Protocol: as §1

SMILES: Nc1ncc(-c2cccc([N+](=O)[O-])c2F)cc1-c1ccc2c(c1)CCNC2=O [Compound I-9, 6-(2-amino-5-(2-fluoro-3-nitrophenyl)pyridin-3-yl)-3,4-dihydroisoquinolin-1(2H)-one]
- inhibition at 10 µM (IKKb; read-out: % inhibition (range)): 0%
- inhibition at 10 µM (IKKb; read-out: inhibition (10 μM)): -15%
- inhibition at 10 µM (TLK2; read-out: % inhibition (range)): 0%
- inhibition at 10 µM (TLK2; read-out: inhibition (10 μM)): 34%
- inhibition at 10 µM (ULK1; read-out: % inhibition (range)): 0%
- inhibition at 10 µM (ULK1; read-out: inhibition (10 μM)): -19.6%
- inhibition at 10 µM (PIK3CG; read-out: % inhibition (range)): 0%
- inhibition at 10 µM (PIK3CG; read-out: inhibition (10 μM)): 16.3%
- inhibition at 10 µM (MAP3K2; read-out: % inhibition (range)): 0%
- inhibition at 10 µM (MAP3K2; read-out: inhibition (10 μM)): 0.3%
- inhibition at 10 µM (PIP5K3; read-out: % inhibition (range)): > 90%
- inhibition at 10 µM (PIP5K3; read-out: inhibition (10 μM)): 92%
- inhibition at 10 µM (MPSK1): 55.2%
- inhibition at 10 µM (p38a): 75 to 90%
- inhibition at 10 µM (LYN; read-out: % inhibition (range)): 0%
- inhibition at 10 µM (LYN; read-out: inhibition (10 μM)): -12.4%
- inhibition at 10 µM (RSKL1; read-out: % inhibition (range)): 0%
- inhibition at 10 µM (RSKL1; read-out: inhibition (10 μM)): 0.2%
- % inhibition (range) (Wnk1, Wnk2, Wnk3; 10 μM): >100%
- inhibition (10 μM) (Wnk1, Wnk2, Wnk3): −105.5%
- inhibition at 10 µM (CDC2; read-out: % inhibition (range)): 0%
- inhibition at 10 µM (CDC2; read-out: inhibition (10 μM)): -24.7%
- inhibition at 10 µM (FRAP; read-out: % inhibition (range)): 50 to 75%
- inhibition at 10 µM (FRAP; read-out: inhibition (10 μM)): 72.7%
- inhibition at 10 µM (MAP2K4; read-out: % inhibition (range)): 50 to 75%
- inhibition at 10 µM (MAP2K4; read-out: inhibition (10 μM)): 72.9%
- % inhibition (range) (IKKe, TBK1; 10 μM): 0.0%
- inhibition (10 μM) (IKKe, TBK1): 21.2%
- inhibition at 10 µM (EphB2; read-out: % inhibition (range)): 0%
- inhibition at 10 µM (EphB2; read-out: inhibition (10 μM)): -25%
- % inhibition (range) (MAPKAPK2, MAPKAPK3; 10 μM): 0.0%
- inhibition (10 μM) (MAPKAPK2, MAPKAPK3): 4.0%
- % inhibition (range) (AurA; 10 μM): 50-75% and 75-90%
- inhibition (10 μM) (AurA): 75.7%
- inhibition at 10 µM (AurA; read-out: inhibition (10 μM)): 68.5%
- % inhibition (range) (JNK1, JNK2, JNK3; 10 μM): 0.0%
- inhibition (10 μM) (JNK1, JNK2, JNK3): −24.2%
- % inhibition (range) (ABL, ARG; 10 μM): 75-90%
- inhibition (10 μM) (ABL, ARG): 75.7%
- % inhibition (range) (KSR1, KSR2; 10 μM): 0.0%
- inhibition (10 μM) (KSR1, KSR2): −51.3%
- inhibition at 10 µM (Erk1; read-out: % inhibition (range)): 50 to 75%
- inhibition at 10 µM (Erk1; read-out: inhibition (10 μM)): 50.5%
- inhibition at 10 µM (MAP2K1; read-out: % inhibition (range)): 0%
- inhibition at 10 µM (MAP2K1; read-out: inhibition (10 μM)): -55.8%
- inhibition at 10 µM (TAO2; read-out: % inhibition (range)): 35 to 50%
- inhibition at 10 µM (TAO2; read-out: inhibition (10 μM)): 35.3%
- inhibition at 10 µM (CHK1; read-out: % inhibition (range)): 0%
- inhibition at 10 µM (CHK1; read-out: inhibition (10 μM)): 14.9%
- inhibition at 10 µM (BARK1; read-out: % inhibition (range)): 0%
- inhibition at 10 µM (BARK1; read-out: inhibition (10 μM)): 2.8%
- inhibition at 10 µM (GCK): 91.5%
- inhibition at 10 µM (NEK8; read-out: % inhibition (range)): 0%
- inhibition at 10 µM (NEK8; read-out: inhibition (10 μM)): 11.6%
- inhibition at 10 µM (SRPK2; read-out: % inhibition (range)): 0%
- inhibition at 10 µM (SRPK2; read-out: inhibition (10 μM)): 18.9%
- inhibition at 10 µM (TYK2 domain2; read-out: % inhibition (range)): 0%
- inhibition at 10 µM (TYK2 domain2; read-out: inhibition (10 μM)): 29.9%
- % inhibition (range) (NEK6, NEK7; 10 μM): 0.0%
- inhibition (10 μM) (NEK6, NEK7): −35.7%
- inhibition at 10 µM (CaMK1d; read-out: % inhibition (range)): 0%
- inhibition at 10 µM (CaMK1d; read-out: inhibition (10 μM)): -2.8%
- % inhibition (range) (TAO1, TAO3; 10 μM): 50-75%
- inhibition (10 μM) (TAO1, TAO3): 67.5%
- inhibition at 10 µM (PRP4; read-out: % inhibition (range)): 50 to 75%
- inhibition at 10 µM (PRP4; read-out: inhibition (10 μM)): 70.2%

Source: patent publication US10710978B2, “STK4 inhibitors for treatment of hematologic malignancies” (Dana-Farber Cancer Institute, Inc., priority 2015, dated 2020)
